Values joined by “and” are separate entries in the source; they are usually repeats but may differ in a detail not shown here. Identical values can stand only once.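 48-hour exposure; five concentrations; linearly interpolated endpoints. Abbreviation: GI50, concentration required for 50% inhibition of growth. The concentration for full growth arrest is given as TGI.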 Bounds are passed on as bounds.

Among the test systems are DMS 114 small cell lung; KM20L2 colon; HOP-18 NSCLC; P388 leukemia; P388/ADR leukemia; DMS 273 small cell lung; SN12K1 renal; XF 498 CNS; RXF-631 renal; LXFL 529 NSCLC.
Assay in all cases: NCI tumour cell line growth inhibition, 48 h

As to `OCC1OC(n2cnc3cncnc32)C(O)C1O` (stereo not given), the TGI in the assay with DMS 114 small cell lung amounted to 2.57 µM; with KM20L2 colon, 5.17 µM; in the assay with HOP-18 NSCLC, 8.15 µM; with P388 leukemia, 1.59 µM; with P388/ADR leukemia, 1.46 µM; in the assay with DMS 273 small cell lung, 2.38 µM. Besides, in the assay with SN12K1 renal, the TGI turned out to be 3.49 µM.
For the compound `Cc1ccc(C(C)(C)C[P+](C)(c2ccccc2)c2ccccc2)cc1`, the TGI was 35.6 µM in the assay on DMS 114 small cell lung; above 88.8 µM in the assay with KM20L2 colon; above 47.8 µM with HOP-18 NSCLC; 12.3 µM in the assay with P388 leukemia; above 100 µM in the assay with P388/ADR leukemia; 12.9 µM with XF 498 CNS. Further, the results for the TGI in the assay on DMS 273 small cell lung and in the assay on SN12K1 renal were 23.8 µM and above 90.7 µM, respectively.
Regarding `Nc1cccc2c1C(=O)c1cccc(N)c1C2=O`, the TGI in the assay on RXF-631 renal is above 100 µM; with LXFL 529 NSCLC, above 100 µM; in the assay on KM20L2 colon, above 100 µM; with XF 498 CNS it was 69.4 µM; with DMS 273 small cell lung, above 100 µM.
Consider `COC(=O)C1CCC(=O)N1C(=O)Cc1ccc(OC)cc1` (stereo not given), for which the TGI in the assay on DMS 114 small cell lung, in the assay on LXFL 529 NSCLC, in the assay with KM20L2 colon, in the assay with XF 498 CNS and in the assay with DMS 273 small cell lung was above 100 µM in each case.
Take `[Cl][Pt+2][Cl].[NH-]C1CCCCC1[NH-]` (stereo not given): the GI50 with KM20L2 colon is 8.07 µM and 2.19 µM and 1.36 µM; in the assay with HOP-18 NSCLC it was 25.6 µM and > 100 µM and 28.4 µM; in the assay with P388/ADR leukemia, 4.69 µM and 2.22 µM and 0.629 µM. The TGI was 44.6 µM and > 52.9 µM and 29.6 µM with KM20L2 colon; above 100 µM in the assay on HOP-18 NSCLC; 6.91 µM and 7.39 µM and 2.14 µM with P388 leukemia; 98.9 µM and > 100 µM and > 52.4 µM with P388/ADR leukemia; above 100 µM with SN12K1 renal.
On to `Cc1ccccc1-n1c(C)nc2c1C(=O)c1ccccc1C2=O`, for which the results for the TGI with DMS 114 small cell lung and in the assay on DMS 273 small cell lung were 87 µM and above 100 µM, respectively.

These data come from PubChem BioAssay (NCI).
